Results on 4 compounds are retold here after US10272081B2, “SHIP1 modulators and methods related thereto” (Aquinox Pharmaceuticals (Canada) Inc., priority 2013, dated 2019).

Each structure is given as a SMILES string.

Assay [1] concerns passive cutaneous anaphylaxis in mice. The experiment in a line: Passive cutaneous anaphylaxis in mice. The settings on record: oral gavage, doses less than 20 mg/kg. Format: in vivo. The procedure: The activity of representative compounds on passive cutaneous anaphylaxis in mice was evaluated according to the procedures disclosed by Ovary, J Immunol 81, 355-357, 1958 and Halpern et al., Br J Pharmacol Chemother 20, 389-398, 1963, both of which are incorporated herein by reference in their entirety.
To induce a passive cutaneous anaphylaxis, mice undergo intradermal ear inoculation on their right ear with 25 ng in 20 μL of anti-DNP-IgE. The left ears are untreated and serve as negative controls. Twenty-four hours after inoculation, all mice are administered test compound by oral gavage (PO). Sixty minutes after oral administration, mice are given a tail vein injection of 2% Evan's Blue (0.2 μm filtered, in 200 μL saline) followed by a second tail IV injection of 100 μg DNP-HSA (in 200 μL). Sixty minutes following the DNP-HAS injection, mice are euthanized using CO2 inhalation. Subsequently, ear biopsies are performed by taking four millimetre punches from both ears, which then undergo Evan's Blue extraction using formamide incubation in 96 well plates. Eighty μL of eluents are transferred to flat-bottom 96-well plates and absorbance read using SpectraMax M5 spectrophotometer (Molecular Devices, Sunnyvale, Calif., USA) at 620 nm. Background readings from all samples are taken at 740 nm and subtracted from the 620 nm readings. Data are reported as OD.

Another assay deals with T1, His-hSHIP1 enzyme (Homo sapiens, UniProt Q92835).
T1 construct: His
T1 sequence (Q92835 1-1189): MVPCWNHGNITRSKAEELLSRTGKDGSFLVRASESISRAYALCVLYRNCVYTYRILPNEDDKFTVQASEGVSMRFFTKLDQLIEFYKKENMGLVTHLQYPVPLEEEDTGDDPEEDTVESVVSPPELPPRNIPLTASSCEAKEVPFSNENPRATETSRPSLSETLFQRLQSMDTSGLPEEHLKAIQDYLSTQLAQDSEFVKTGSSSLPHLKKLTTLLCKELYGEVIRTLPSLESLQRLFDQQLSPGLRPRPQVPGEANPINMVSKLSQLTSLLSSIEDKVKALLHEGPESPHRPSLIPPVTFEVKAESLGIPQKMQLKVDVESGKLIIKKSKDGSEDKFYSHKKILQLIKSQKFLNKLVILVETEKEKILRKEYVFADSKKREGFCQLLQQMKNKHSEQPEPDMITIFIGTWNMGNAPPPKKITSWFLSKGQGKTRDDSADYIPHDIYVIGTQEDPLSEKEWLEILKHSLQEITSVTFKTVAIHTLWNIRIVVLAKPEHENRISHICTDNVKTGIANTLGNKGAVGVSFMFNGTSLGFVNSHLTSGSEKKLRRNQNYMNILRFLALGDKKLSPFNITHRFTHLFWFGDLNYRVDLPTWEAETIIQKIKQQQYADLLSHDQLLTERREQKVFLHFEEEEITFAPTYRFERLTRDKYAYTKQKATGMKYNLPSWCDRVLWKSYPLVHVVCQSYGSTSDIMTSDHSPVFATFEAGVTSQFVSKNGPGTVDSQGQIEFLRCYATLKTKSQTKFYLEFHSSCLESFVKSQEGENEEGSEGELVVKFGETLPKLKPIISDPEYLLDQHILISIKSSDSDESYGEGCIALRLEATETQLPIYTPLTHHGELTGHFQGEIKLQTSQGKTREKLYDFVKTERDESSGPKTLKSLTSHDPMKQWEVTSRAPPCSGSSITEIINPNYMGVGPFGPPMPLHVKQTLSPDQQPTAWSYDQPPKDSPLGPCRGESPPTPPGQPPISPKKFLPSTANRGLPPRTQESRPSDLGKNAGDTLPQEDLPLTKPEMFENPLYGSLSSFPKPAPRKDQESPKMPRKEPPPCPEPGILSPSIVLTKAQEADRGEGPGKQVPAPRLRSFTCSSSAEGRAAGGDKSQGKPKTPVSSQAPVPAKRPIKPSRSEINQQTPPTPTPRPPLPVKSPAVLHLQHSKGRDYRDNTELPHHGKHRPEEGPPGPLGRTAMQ
Nature of the assay: His-hSHIP1 activity, approach 1 (phosphate release from IP4, Biomol Green). The settings on record: activation of His-hSHIP1; IP4 50 μM; test compound 0-300 μM; no asterisk in Table 2. In kind it is biochemical. A digest of the protocol: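 Compounds at 0–300 μM final, carried in 10% ethanol, were incubated with 5-20 ng His-hSHIP1 and 50 μM IP4. Buffer was Tris pH 7.5 with 10 mM MgCl2 and Tween 20, 15 min at 37° C. Released phosphate was measured with Biomol Green as absorbance at 650 nm.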

Assay [2] has as its system Akt phosphorylation in Jurkat (SHIP1−) lymphocytes. The experiment in a line: Akt phosphorylation in lymphocytes, Jurkat (Western blot). In kind it is cell-based. Set-up: key: +: inhibits Akt phosphorylation at 10 μM; −: no effect on Akt phosphorylation at 10 μM. The note with it: 10 μM; IGF-1 stimulated Jurkat (PTEN−/SHIP1−) cells. The procedure:
Jurkat (PTEN−/SHIP1−) or Molt-4 (PTEN−/SHIP1+) cells are starved in serum free RPMI for overnight. In a 15 mL conical tube, 2-3 million serum starved cells (1 million cells per mL) are treated with various concentrations of test compound (0.1, 1, or 10 μM final in 0.1% DMSO) for 30 min at 37° C. followed by stimulation with 100 ng/mL of IGF-1 for 1 hour at 37° C. After stimulation, cells are washed once with ice-cold DPBS and lysed with Lysis Buffer (20 mM Tris-HCl, pH 7.5, 140 mM NaCl, 1% NP-40, Complete Mini Protease Inhibitor Cocktail, 10 mM NaF, 1 mM Na3VO4, 1 mM β-glycerolphosphate) on ice for 30 min with vortexing every 10 min. Samples are then centrifuged at 13,000 rpm for 20 min, and supernatants are collected as total cell lysate samples. Protein concentration is determined using bicinchonic acid assay, and about 15 μg of total protein from each sample is loaded and separated on a 4-12% Tris-Glycine gel. After SDS-PAGE, proteins are transferred from the gel to a nitrocellulose membrane. The membrane is blocked in 5% BSA in PBS containing 0.1% Tween-20 (PBS-T) for 1 hour at room temperature before probing with primary antibodies for overnight at 4° C. The following antibodies are used: mouse anti-SHIP1 (1:500 dilution; Santa Cruz, Calif., USA), rabbit anti-phospho-Akt(Ser473) (1:1000 dilution; Cell Signaling Technologies, MA, USA), rabbit anti-Akt (1:1000; Cell Signaling Technologies, MA, USA), and rabbit anti-actin (1:2000; Cell Signaling Technologies, MA, USA). The membrane is then incubated with goat anti-rabbit or anti-mouse secondary antibodies (1:3000) for 1 hour at room temperature. Target proteins on the membrane are detected with ECL solution and exposed on a film.
(In general: In western blotting, separated proteins are transferred to a membrane and probed.)

The test system of assay [3] is carrageenan paw edema in mice. Nature of the assay: Carrageenan paw edema in mice. In kind it is in vivo. The settings on record: 30 mg/kg orally one hour before carrageenan, 4 hours after carrageenan. As for the experimental part: The activity of representative compounds on carrageenan paw edema in mice was evaluated according to the procedures disclosed by Winter et al., Proc Soc Exp Biol Med 111, 544-547, 1962 which is incorporated herein by reference in its entirety.
To induce edema in the paw, test compounds were administered orally one hour before intraplantar injection of the right hind paw with carrageenan (50 μL of 1% suspension). Hind paw edema, as a measure of inflammation, was recorded using a plethysmometer (Ugo Basile, Italy) 4 hours after λ-carrageenan administration.

With `CC1(C)CCC[C@]2(C)[C@@H](COc3cc(O)cc(O)c3)[C@](C)(O)CC[C@@H]12` [Compound No. 38, 5-{[(1S,2R,4aS,8aS)-2-hydroxy-2,5,5,8a-tetramethyl-decahydronaphthalen-1-yl]methoxy}benzene-1,3-diol], in assay [1], the “% Inhibition of allergen-induced passive cutaneous anaphylaxis” value (shortened to “% Inhibition”) is “+++ (>50% inhibition)”. In addition, the “Scoring, Approach 1 (% increase relative to background)” value on His-hSHIP1 enzyme was “+ (0 < x < 50)”.

On to `CC(=O)N[C@@H]1C[C@H]2C(C)(C)CCC[C@]2(C)[C@@H](C(=O)c2cc(O)cc(O)c2)[C@@H]1C` [Compound No. 57, N-[(2R,3S,4S,4aS,8aS)-4-[(3,5-dihydroxyphenyl)carbonyl]-3,4a,8,8-tetramethyl-decahydronaphthalen-2-yl]acetamide], for which, in assay [1], the “% Inhibition” value is “+++ (>50% inhibition)”. For the same compound, the “Jurkat (SHIP1 −), Akt phosphorylation” value in assay [2] is listed as “−”. In addition, the “Scoring, Approach 1 (% increase relative to background)” value on His-hSHIP1 enzyme was “+++ (x ≥65)”.

`C[C@H]1CC[C@H]2C(C)(C)CCC[C@]2(C)[C@H]1CC(=O)c1cc(O)cc(O)c1` [Compound No. 48, 2-[(1S,2S,4aS,8aR)-2,5,5,8a-tetramethyl-decahydronaphthalen-1-yl]-1-(3,5-dihydroxyphenyl)ethan-1-one]: on His-hSHIP1 enzyme, the “Scoring, Approach 1 (% increase relative to background)” value is recorded as “+++ (x ≥65)”. The “inhibition of carrageenan-induced paw edema” value in assay [3] amounted to 21%.

Turning to `C[C@H]1CC[C@H]2C(C)(C)CCC[C@]2(C)[C@H]1CC(O)c1cc(O)cc(O)c1` (stereo partly drawn) [Compound No. 58, 5-{2-[(1S,2S,4aS,8aR)-2,5,5,8a-tetramethyl-decahydronaphthalen-1-yl]-1-hydroxyethyl}benzene-1,3-diol], the “% Inhibition” value in assay [1] is given as “+++ (>50% inhibition)”. In addition, at His-hSHIP1 enzyme, the “Scoring, Approach 1 (% increase relative to background)” value was “+++ (x ≥65)”.
